Consider one compound from US20260355112A1, “HIGH-STABILITY LIPOSOME, PREPARATION METHOD THEREFOR, AND USE THEREOF” (SIRIO HEALTHCARE (ANHUI) CO., LTD., priority 2022, published 2026).

The conditions of data set [1]: background statement; cited from earlier work.
Data set [2] can be described thus: Microscopic observation (polarizing microscope). Particulars: under the microscope. In kind it is physicochemical. From the text: The test sample was taken on a glass slide, spread homogeneously, and covered with a cover glass to prepare a temporary mounting slide.
A transflective polarizing microscope (VPV-900) was used. The specific procedures were as follows: adjust the brightness, fix the temporary mounting slide on the stage, align the light aperture with a low-power objective lens, and adjust the coarse focus screw until the field of view is clear. If the clarity is insufficient, use the fine focus screw for further adjustment or switch to a high-power objective lens for observation.
Bright spots can be observed in the middle of the sample in the field of view, which were crystalline structures.

The structures appear in SMILES notation.

Turning to `COC1=C(OC)C(=O)C(C/C=C(\C)CC/C=C(\C)CC/C=C(\C)CC/C=C(\C)CC/C=C(\C)CC/C=C(\C)CC/C=C(\C)CC/C=C(\C)CC/C=C(\C)CCC=C(C)C)=C(C)C1=O` [Coenzyme Q10, coenzyme Q10], the “Antioxidant capacity relative to vitamin E” value in data set [1] is recorded as 50 times. Besides, the Microscopic structure entry is reported as “irregular crystalline structures” in data set [2] (listed as coenzyme Q10 raw material) and “irregular crystal structure” in data set [2] (listed as raw material of coenzyme Q10).
